The values below come from patent US6960589B2, “Benzimidazoles that are useful in treating sexual dysfunction” (Abbott Laboratories, priority 2001, dated 2005).

Values joined by “and” are separate entries in the source; they are usually repeats but may differ in a detail not shown here. Equal values may be shown once.

One data set deals with Wistar rats. The data set can be described thus: Rat penile erection model. In kind it is in vivo. To be noted: for Induction of penile erections in rats (result in words): subcutaneous administration, doses of 0.01 μmol/kg to 0.10 μmol/kg. The protocol: Wistar rats were used as a primary animal model to study penile erection in vivo. All experiments were carried out between 9:00 AM and 3:00 PM in a diffusely illuminated testing room with a red light. Animals were weighed and allowed to adapt to the testing room for 60 minutes before the beginning of experiments. Rats were placed individually in a transparent cage (20×30×30 cm) after drug injection.
(L)-Ascorbic acid in saline (1 mg/mL) was used as vehicle. Twelve animals were used per dose.

The subject of the next data set is Male Fitch ferrets. On the set-up: species or system ferret. The settings on record: in vivo, sc. As to the method:
Male Fitch ferrets (body weights 1.0-1.5 kg) were obtained from Marshall Farms. Ferrets were fasted overnight before experimentation. Apomorphine or a compound of the present invention was administrated subcutaneously; animals were placed individually in observation cages and the drug-induced emesis and signs of nausea were determined (by direct observation) for a period of 90 minutes following drug injection. Nausea was characterized by behaviors such as licking, gagging, backing, head burying, and intense abdominal grooming. Emesis was usually preceded by these behaviors and was characterized by rhythmic abdominal contractions which were associated with vomiting or retching movement.
Sterile saline was used as vehicle. Six animals were used per dose.

As to `CN1CCc2cccc3c2[C@H]1Cc1ccc(O)c(O)c1-3` [Apomorphine, (6aR) 5,6,6a,7-tetrahydro-6-methyl-4H-dibenzo[de,g]quinoline-10,11-diol, reference compound], in the data set on Wistar rats (rats, dose 0.1 μmol/kg, observed 60 minutes after dosing), the “Incidence (%) of penile erection (animals exhibiting 1 or more erections)” value is 83% and 93%.

The molecule `c1ccc2[nH]c(CN3CCN(c4nccs4)CC3)nc2c1` [Example 7, 2-{[4-(1,3-thiazol-2-yl)piperazin-1-yl]methyl}-1H-benzimidazole] returned a melting point of 203 to 205 °C.

For the molecule `CC1CN(c2ccccn2)CCN1Cc1nc2ccccc2[nH]1` (centres unmarked) [Example 24, 2-[(2-methyl-4-pyridin-2-ylpiperazin-1-yl)methyl]-1H-benzimidazole], the melting point lay in the range of 207 to 209 °C.

The molecule `CCOc1ccccc1N1CCN(Cc2nc3ccccc3[nH]2)CC1` [Example 19, 2-{[4-(2-ethoxyphenyl)piperazin-1-yl]methyl}-1H-benzimidazole] returned a melting point of 95 to 100 °C.

Molecule `CN(C)C(=O)n1c(CN2CCN(c3ccccn3)CC2)nc2ccccc21` [Example 10, N,N-dimethyl-2-[(4-pyridin-2-ylpiperazin-1-yl)methyl]-1H-benzimidazole-1-carboxamide] had a melting point of 174 to 176 °C.

Molecule `O=C(N1CCCC1)n1c(CN2CCN(c3ccccn3)CC2)nc2ccccc21` [Example 9, 2-[(4-pyridin-2-ylpiperazin-1-yl)methyl]-1-(pyrrolidin-1-ylcarbonyl)-1H-benzimidazole] showed a melting point of 120 to 121 °C.

In turn, `c1cnc(N2CCN(Cc3nc4ccccc4[nH]3)CC2)nc1` [Example 2, 2-[(4-pyrimidin-2-ylpiperazin-1-yl)methyl]-1H-benzimidazole] gave a melting point of 198 to 200 °C.

In turn, `CSc1ccccc1N1CCN(Cc2nc3ccccc3[nH]2)CC1` [Example 18, 2-({4-[2-(methylthio)phenyl]piperazin-1-yl}methyl)-1H-benzimidazole] came in with a melting point of 214 to 216 °C.

Regarding `Fc1ccccc1N1CCN(Cc2nc3ccccc3[nH]2)CC1` [Example 14, 2-{[4-(2-fluorophenyl)piperazin-1-yl]methyl}-1H-benzimidazole], the melting point was 262 to 264 °C.

Take `Oc1ccc(N2CCN(Cc3nc4ccccc4[nH]3)CC2)nc1` [6-[4-(1H-benzimidazol-2-ylmethyl)piperazin-1-yl]pyridin-3-ol]: the melting point was in the range of 144 to 145 °C. Also, the “Induction of penile erections in rats (result in words)” value in the data set on Wistar rats is listed as “induced statistically significant penile erections”.

With `N#Cc1ccccc1N1CCN(Cc2nc3ccccc3[nH]2)CC1` [Example 12, 2-[4-(1H-benzimidazol-2-ylmethyl)piperazin-1-yl]benzonitrile], the melting point was 236 to 237 °C.

As to `Oc1ccccc1N1CCN(Cc2nc3ccccc3[nH]2)CC1` [Example 20, 2-[4-(1H-benzimidazol-2-ylmethyl)piperazin-1-yl]phenol], the melting point fell in the range of 208 to 216 °C.

Take `C[C@H]1CN(c2ccccn2)CCN1Cc1nc2ccccc2[nH]1` [Example 25, 2-{[(2S)-2-methyl-4-pyridin-2-ylpiperazin-1-yl]methyl}-1H-benzimidazole]: the melting point fell in the range of 149 to 151 °C.

Turning to `Fc1cccnc1N1CCN(Cc2nc3ccccc3[nH]2)CC1` [Example 28, 2-{[4-(3-fluoropyridin-2-yl)piperazin-1-yl]methyl}-1H-benzimidazole], the melting point was in the range of 210 to 212 °C.

The molecule `C[C@@H]1CN(c2ccccn2)CCN1Cc1nc2ccccc2[nH]1` [Example 26, 2-{[(2R)-2-methyl-4-pyridin-2-ylpiperazin-1-yl]methyl}-1H-benzimidazole] returned a melting point of 151 to 153 °C.

`N#Cc1cccnc1N1CCN(Cc2nc3ccccc3[nH]2)CC1` [Example 4, 2-[4-(1H-benzimidazol-2-ylmethyl)piperazin-1-yl]nicotinonitrile]: the melting point fell in the range of 208 to 210 °C.

Take `c1ccc(N2CCN(Cc3nc4ccccc4[nH]3)CC2)nc1` [2-[(4-pyridin-2-ylpiperazin-1-yl)methyl]-1H-benzimidazole]: in the data set on Wistar rats, the “Induction of penile erections in rats (result in words)” value was “induced statistically significant penile erections”. Also, the “Induction of emesis in ferrets (result in words)” value in the data set on Male Fitch ferrets is listed as “did not induce emesis”.

Molecule `Oc1ccc(N2CCN(Cc3nc4ccccc4[nH]3)CC2)cc1` [Example 17, 4-[4-(1H-benzimidazol-2-ylmethyl)piperazin-1-yl]phenol] returned a melting point of 206 to 209 °C.

Broadly, the melting point is the temperature, or range, at which the solid turns liquid.
